Measured values from ChEMBL document CHEMBL4184195, “Influence of hydrocarbon-stapling on membrane interactions of synthetic antimicrobial peptides” (Bioorg Med Chem, 2018).
In brackets after ≈: the same amount, converted by molar mass. Activity calls are given as the source filed them. No cut-off for these calls is given here. Bridge positions count the residues as written; N and C are the ends. Square brackets hold non-standard residues; d marks the D form. Peptide text beside a SMILES is read from it. S5 = C=CCCC[C@](C)(N)C(=O)O

How the values were obtained:
[1] = Binding affinity to SDS detergent micelles assessed as reduction in blue shift at 10 uM by tryptophan fluorescence-based fluorometry
[2] = Hemolytic activity in human RBC at 4 uM after 1 hr; format: ADME, cell-based, Erythrocyte; conditions: red blood cells (erythrocytes), read-out: Activity
Lipid bilayer [3] = assay: Binding affinity to POPC liposome membranes assessed as reduction in blue shift at 10 uM by tryptophan fluorescence-based fluorometry
[4] = Therapeutic index, ratio of MHC for human RBC to MIC for Escherichia coli BL21; format: toxicity; conditions: read-out: TI
Escherichia coli [5] = assay: Time dependent inhibition of Escherichia coli BL21 at 2 uM; format: functional, organism-based
Lipid bilayer [6] = assay: Binding affinity to Escherichia coli large unilamellar vesicles assessed as reduction in blue shift at 10 uM by tryptophan fluorescence-based fluorometry
Erythrocyte = assay: Hemolytic activity in human RBC after 1 hr; format: ADME, cell-based
Escherichia coli [7] = assay: Growth inhibition of Escherichia coli BL21 at 2 uM after 2 hrs relative to 6K-F17; format: functional; conditions: for inhibition of growth at 2 µM: BL21, BL21, 2 h, read-out: GI
Escherichia coli [8] = assay: Antibacterial activity against Escherichia coli BL21 after 20 hrs by two fold serial dilution method; format: functional; conditions: BL21, 20 h
Escherichia coli [9] = assay: Time dependent inhibition of Escherichia coli BL21 at 4 uM; format: functional, organism-based
Escherichia coli [10] = assay: Time dependent inhibition of Escherichia coli BL21 at 8 uM; format: functional, organism-based
Lipid bilayer [11] = assay: Binding affinity to POPC liposome membranes assessed as change in spectral lineshape by 31P solid-state NMR spectroscopic analysis
Lipid bilayer [12] = assay: Binding affinity to Escherichia coli large unilamellar vesicles assessed as change in spectral line shape by 31P solid-state NMR spectroscopic analysis

Activity [1] | Activity (Lipid bilayer [3]) | Activity (Lipid bilayer [6]) | MIC (Escherichia coli [8]) [µM] | Molecule | hemolysis at 1 h, 4 µM [2] [%] | selectivity ratio [4] | inhibition (Escherichia coli [5]) | MHC (Erythrocyte) [µM] | inhibition of growth at 2 µM (Escherichia coli [7]) [%] | inhibition (Escherichia coli [9]) | inhibition (Escherichia coli [10]) | Activity (Lipid bilayer [11]) | growth inhibition (GI) (Escherichia coli [7]) | Activity (Lipid bilayer [12])
Active | inactive | inactive | 1 (≈ 1.94 µg/mL) | C[C@H](NC(=O)[C@H](C)NC(=O)[C@H](Cc1ccccc1)NC(=O)[C@]1(C)CCC/C=C\CCC[C@](C)(NC(=O)[C@H](Cc2ccccc2)NC(=O)[C@H](C)NC(=O)[C@H](C)NC(=O)[C@H](CCCCN)NC(=O)[C@H](CCCCN)NC(=O)[C@H](CCCCN)NC(=O)[C@H](CCCCN)NC(=O)[C@H](CCCCN)NC(=O)[C@@H](N)CCCCN)C(=O)N[C@@H](C)C(=O)N[C@@H](Cc2c[nH]c3ccccc23)C(=O)N[C@@H](C)C(=O)N1)C(N)=O (H-KKKKKKAAF[S5]AWA[S5]FAA-NH2; staple (Z) 10-14) | 2 | 3.8 | Active | 3.8 | ≤ 40 | – | – | – | – | –
Active | inactive | Active | 1.6 (≈ 3.06 µg/mL) | C[C@H](NC(=O)CNC(=O)[C@H](Cc1ccccc1)NC(=O)[C@]1(C)CCC/C=C\CCC[C@](C)(NC(=O)[C@H](Cc2ccccc2)NC(=O)CNC(=O)[C@H](C)NC(=O)[C@H](CCCCN)NC(=O)[C@H](CCCCN)NC(=O)[C@H](CCCCN)NC(=O)[C@H](CCCCN)NC(=O)[C@H](CCCCN)NC(=O)[C@@H](N)CCCCN)C(=O)N[C@@H](C)C(=O)N[C@@H](Cc2c[nH]c3ccccc23)C(=O)N[C@@H](C)C(=O)N1)C(N)=O (H-KKKKKKAGF[S5]AWA[S5]FGA-NH2; staple (Z) 10-14) | – | 9.4 | – | 15 | ≤ 40 | Active | – | – | – | –
Active | inactive | Active | 4.2 (≈ 7.99 µg/mL) | C[C@H](NC(=O)CNC(=O)[C@H](Cc1ccccc1)NC(=O)[C@]1(C)CCC/C=C\CCC[C@](C)(NC(=O)[C@H](Cc2ccccc2)NC(=O)CNC(=O)[C@H](C)NC(=O)[C@H](CCCCN)NC(=O)[C@H](CCCCN)NC(=O)[C@H](CCCCN)NC(=O)[C@H](CCCCN)NC(=O)[C@H](CCCCN)NC(=O)[C@@H](N)CCCCN)C(=O)N[C@@H](C)C(=O)N[C@@H](Cc2c[nH]c3ccccc23)C(=O)NCC(=O)N1)C(N)=O (H-KKKKKKAGF[S5]AWG[S5]FGA-NH2; staple (Z) 10-14) | – | 30.8 | – | 128 | ≤ 40 | – | Active | – | – | –
inactive | inactive | Active | 4.2 (≈ 8.17 µg/mL) | C[C@H](NC(=O)CNC(=O)[C@H](Cc1ccccc1)NC(=O)[C@]1(C)CCC/C=C\CCC[C@](C)(NC(=O)[C@H](Cc2ccccc2)NC(=O)CNC(=O)[C@H](CC(N)=O)NC(=O)[C@H](CCCCN)NC(=O)[C@H](CCCCN)NC(=O)[C@H](CCCCN)NC(=O)[C@H](CCCCN)NC(=O)[C@H](CCCCN)NC(=O)[C@@H](N)CCCCN)C(=O)N[C@@H](C)C(=O)N[C@@H](Cc2c[nH]c3ccccc23)C(=O)NCC(=O)N1)C(N)=O (H-KKKKKKNGF[S5]AWG[S5]FGA-NH2; staple (Z) 10-14) | – | 140 | – | 587 | ≤ 40 | – | Active | inactive | – | Active

Molecule | Activity [1] | Activity (Lipid bilayer [3]) | Activity (Lipid bilayer [6]) | MIC (Escherichia coli [8]) [µM] | hemolysis at 1 h, 4 µM [2] [%] | selectivity ratio [4] | inhibition (Escherichia coli [5]) | MHC (Erythrocyte) [µM] | inhibition of growth at 2 µM (Escherichia coli [7]) [%] | inhibition (Escherichia coli [9]) | inhibition (Escherichia coli [10]) | Activity (Lipid bilayer [11]) | growth inhibition (GI) (Escherichia coli [7]) | Activity (Lipid bilayer [12])
H-KKKKKKAAFAAWAAFAA-NH2 | Active | inactive | Active | 1.6 | – | 200 | – | 320 | – | Active | – | Active | Active | Active
